We go through 1 compound from patent EP2415863A1, “Mutant glucose oxidase” (B.R.A.I.N., priority 2010, dated 2012).

Format in all cases: biochemical
For assay [1], the target named is T1, Aspergillus niger glucose oxidase (GOx) variant M12, N2Y, K13E, T30V, I94V, K152R, SEQ ID NO: 1 (Aspergillus niger, UniProt P13006, I116V/K174R/K35E/N24Y/T52V).
T1 construct: made in house; host or cells: Saccharomyces cerevisiae (pYES2)
The assay can be described thus: Kinetic constants by ABTS assay, GOx mutant M12. Particulars: as restated in the description text. From the text: (§1) For detection of GOx activity the ABTS assay was used. 2,2'-azino-bis(3-ethylbenzthiazoline-6-sulphonic acid (ABTS) is commonly used as a substrate with hydrogen peroxide for a peroxidase generating enzyme. Its use allows the reaction kinetics of peroxidases to be followed, to indirectly follow the reaction kinetics of a hydrogen peroxide-producing enzyme or to quantify the amount of hydrogen peroxide in a sample [vanGijlswijk, R.P.M., et al., Fluorochrome-labeled tyramides: Use in immunocytochemistry and fluorescence in situ hybridization. Journal of Histochemistry & Cytochemistry, 1997. 45(3): p. 375-382].
(§2) The kinetic constants were determined using the Specord 200 from (Analytik Jena, Germany) and the ABTS assay [Zhu, Z.W., et al. 2006, Making glucose oxidase fit for biofuel cell applications by directed protein evolution. Biosensors & Bioelectronics, 21(11): 2046-2051]. The measurements were performed in 1 ml of reaction volume and 1 cm light pathway cuvettes, using 2.5, 5, 10, 25, 50 and 100 mM glucose. The data were fitted using Origin 6 (OriginLab Corporation, Northampton).

Assay [2] addresses T2, Aspergillus niger glucose oxidase (GOx), wild type, SEQ ID NO: 3 (Aspergillus niger, UniProt P13006).
T2 construct: made in house; host or cells: Saccharomyces cerevisiae (pYES2 vector)
The experiment in a line: Kinetic constants by ABTS assay, wt GOx. Particulars: 2.5-100 mM glucose.
Description: as §1, §2

The target of assay [3] is T3, Aspergillus niger glucose oxidase (GOx) parent mutant B11, T30V, I94V, SEQ ID NO: 5 (Aspergillus niger, UniProt P13006, I116V/T52V).
T3 construct: made in house; host or cells: Saccharomyces cerevisiae (pYES2 plasmid B11 GOx)
The assay can be described thus: Kinetic constants by ABTS assay, parent GOx B11. Particulars: as restated in the description text.
Description: as §1, §2

T1 sequence (P13006 23-605 N24Y/K35E/T52V/I116V/K174R limits assumed): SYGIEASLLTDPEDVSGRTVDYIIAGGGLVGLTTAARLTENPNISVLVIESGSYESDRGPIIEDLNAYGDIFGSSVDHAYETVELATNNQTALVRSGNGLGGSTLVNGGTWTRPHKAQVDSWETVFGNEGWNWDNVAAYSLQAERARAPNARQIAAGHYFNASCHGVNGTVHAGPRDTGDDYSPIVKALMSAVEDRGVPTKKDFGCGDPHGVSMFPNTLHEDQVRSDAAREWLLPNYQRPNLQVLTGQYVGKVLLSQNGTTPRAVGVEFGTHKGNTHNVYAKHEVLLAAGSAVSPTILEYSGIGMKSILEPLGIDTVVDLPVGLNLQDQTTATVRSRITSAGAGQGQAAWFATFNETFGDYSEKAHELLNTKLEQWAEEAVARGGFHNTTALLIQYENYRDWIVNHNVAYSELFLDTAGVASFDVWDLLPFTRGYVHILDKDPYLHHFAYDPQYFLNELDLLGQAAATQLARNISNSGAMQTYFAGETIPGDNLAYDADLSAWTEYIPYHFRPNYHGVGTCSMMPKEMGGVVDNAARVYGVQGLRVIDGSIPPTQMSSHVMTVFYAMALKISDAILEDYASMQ
T3 sequence (P13006 23-605 T52V/I116V limits assumed): as the sequence (P13006 23-605 N24Y/K35E/T52V/I116V/K174R limits assumed) above, with Y2N, E13K, R152K counted along it
T2 sequence (P13006 23-605 limits assumed): as the sequence (P13006 23-605 N24Y/K35E/T52V/I116V/K174R limits assumed) above, with Y2N, E13K, V30T, V94I, R152K counted along it

Turning to `OC[C@H]1OC(O)[C@H](O)[C@@H](O)[C@@H]1O` (stereo partly drawn) [glucose], the kcat in assay [1] amounted to 150 s⁻¹; in assay [2] it was 54.8 s'; in assay [3] it was 80 s'.
